± gives the expanded uncertainty stated by the source.
Experiment: activity coefficient (dimensionless); of the first substance listed, at infinite dilution; xn = mol fraction of the nth substance listed
Conditions: Liquid, Chromatography, x1 = 0

Compound	activity coefficient (302.45 K)	activity coefficient (322.35 K)	activity coefficient (342.45 K)
C1COCCO1 [1,4-dioxane] + CCCCCCCCCCCCCC[P+](CCCCCC)(CCCCCC)CCCCCC.O=S(=O)([N-]S(=O)(=O)C(F)(F)F)C(F)(F)F	0.51 ± 0.04	0.49 ± 0.04	0.48 ± 0.04
C#CCCCCC [1-heptyne] + CCCCCCCCCCCCCC[P+](CCCCCC)(CCCCCC)CCCCCC.O=S(=O)([N-]S(=O)(=O)C(F)(F)F)C(F)(F)F	0.77 ± 0.05	0.78 ± 0.05	0.8 ± 0.05
C#CCCCC [1-hexyne] + CCCCCCCCCCCCCC[P+](CCCCCC)(CCCCCC)CCCCCC.O=S(=O)([N-]S(=O)(=O)C(F)(F)F)C(F)(F)F	0.7 ± 0.1	0.69 ± 0.05	0.67 ± 0.05
CCC[N+](=O)[O-] [1-nitropropane] + CCCCCCCCCCCCCC[P+](CCCCCC)(CCCCCC)CCCCCC.O=S(=O)([N-]S(=O)(=O)C(F)(F)F)C(F)(F)F	2.19 ± 0.15	1.62 ± 0.11	1.35 ± 0.09
CC(C)CO [2-methyl-1-propanol] + CCCCCCCCCCCCCC[P+](CCCCCC)(CCCCCC)CCCCCC.O=S(=O)([N-]S(=O)(=O)C(F)(F)F)C(F)(F)F	1.49 ± 0.1	1.15 ± 0.07	0.95 ± 0.06
CCC(C)CC [3-methylpentane] + CCCCCCCCCCCCCC[P+](CCCCCC)(CCCCCC)CCCCCC.O=S(=O)([N-]S(=O)(=O)C(F)(F)F)C(F)(F)F	1.04 ± 0.07	0.98 ± 0.06	0.94 ± 0.06
CC#N [acetonitrile] + CCCCCCCCCCCCCC[P+](CCCCCC)(CCCCCC)CCCCCC.O=S(=O)([N-]S(=O)(=O)C(F)(F)F)C(F)(F)F	0.56 ± 0.04	0.5 ± 0.04	0.46 ± 0.04
c1ccccc1 [benzene] + CCCCCCCCCCCCCC[P+](CCCCCC)(CCCCCC)CCCCCC.O=S(=O)([N-]S(=O)(=O)C(F)(F)F)C(F)(F)F	0.39 ± 0.03	0.39 ± 0.03	0.39 ± 0.03
CCCCO [butan-1-ol] + CCCCCCCCCCCCCC[P+](CCCCCC)(CCCCCC)CCCCCC.O=S(=O)([N-]S(=O)(=O)C(F)(F)F)C(F)(F)F	1.62 ± 0.11	1.26 ± 0.08	1.04 ± 0.07
CCCC=O [butanal] + CCCCCCCCCCCCCC[P+](CCCCCC)(CCCCCC)CCCCCC.O=S(=O)([N-]S(=O)(=O)C(F)(F)F)C(F)(F)F	0.38 ± 0.03	0.36 ± 0.03	0.35 ± 0.03
CCC(C)=O [butanone] + CCCCCCCCCCCCCC[P+](CCCCCC)(CCCCCC)CCCCCC.O=S(=O)([N-]S(=O)(=O)C(F)(F)F)C(F)(F)F	0.28 ± 0.03	0.27 ± 0.03	0.23 ± 0.03
C1CCCCCC1 [cycloheptane] + CCCCCCCCCCCCCC[P+](CCCCCC)(CCCCCC)CCCCCC.O=S(=O)([N-]S(=O)(=O)C(F)(F)F)C(F)(F)F	0.83 ± 0.05	1.81 ± 0.12	3.59 ± 0.24
C1CCCCC1 [cyclohexane] + CCCCCCCCCCCCCC[P+](CCCCCC)(CCCCCC)CCCCCC.O=S(=O)([N-]S(=O)(=O)C(F)(F)F)C(F)(F)F	0.83 ± 0.05	0.78 ± 0.05	0.75 ± 0.05
CCCCCCCCCC [decane] + CCCCCCCCCCCCCC[P+](CCCCCC)(CCCCCC)CCCCCC.O=S(=O)([N-]S(=O)(=O)C(F)(F)F)C(F)(F)F	1.97 ± 0.13	1.89 ± 0.13	1.84 ± 0.12
ClCCl [dichloromethane] + CCCCCCCCCCCCCC[P+](CCCCCC)(CCCCCC)CCCCCC.O=S(=O)([N-]S(=O)(=O)C(F)(F)F)C(F)(F)F	0.23 ± 0.03	0.25 ± 0.03	0.27 ± 0.03
CCOCC [diethyl ether] + CCCCCCCCCCCCCC[P+](CCCCCC)(CCCCCC)CCCCCC.O=S(=O)([N-]S(=O)(=O)C(F)(F)F)C(F)(F)F	0.62 ± 0.04	0.59 ± 0.04	0.57 ± 0.04
CC(C)OC(C)C [diisopropyl ether] + CCCCCCCCCCCCCC[P+](CCCCCC)(CCCCCC)CCCCCC.O=S(=O)([N-]S(=O)(=O)C(F)(F)F)C(F)(F)F	0.93 ± 0.06	0.9 ± 0.06	0.87 ± 0.06
CCO [ethanol] + CCCCCCCCCCCCCC[P+](CCCCCC)(CCCCCC)CCCCCC.O=S(=O)([N-]S(=O)(=O)C(F)(F)F)C(F)(F)F	1.56 ± 0.1	1.23 ± 0.08	1.01 ± 0.06
CCc1ccccc1 [ethylbenzene] + CCCCCCCCCCCCCC[P+](CCCCCC)(CCCCCC)CCCCCC.O=S(=O)([N-]S(=O)(=O)C(F)(F)F)C(F)(F)F	0.54 ± 0.04	0.57 ± 0.04	0.59 ± 0.04
CCCCCCC [heptane] + CCCCCCCCCCCCCC[P+](CCCCCC)(CCCCCC)CCCCCC.O=S(=O)([N-]S(=O)(=O)C(F)(F)F)C(F)(F)F	1.27 ± 0.08	1.22 ± 0.08	1.19 ± 0.08

Compound	activity coefficient (302.45 K)	activity coefficient (322.35 K)	activity coefficient (342.45 K)
C=CCCCC [hex-1-ene] + CCCCCCCCCCCCCC[P+](CCCCCC)(CCCCCC)CCCCCC.O=S(=O)([N-]S(=O)(=O)C(F)(F)F)C(F)(F)F	0.91 ± 0.06	0.87 ± 0.06	0.85 ± 0.05
CCCCCC [hexane] + CCCCCCCCCCCCCC[P+](CCCCCC)(CCCCCC)CCCCCC.O=S(=O)([N-]S(=O)(=O)C(F)(F)F)C(F)(F)F	1.09 ± 0.07	1.04 ± 0.07	1.01 ± 0.06
C=O [methanal] + CCCCCCCCCCCCCC[P+](CCCCCC)(CCCCCC)CCCCCC.O=S(=O)([N-]S(=O)(=O)C(F)(F)F)C(F)(F)F	0.06	0.06	0.07 ± 0.03
CO [methanol] + CCCCCCCCCCCCCC[P+](CCCCCC)(CCCCCC)CCCCCC.O=S(=O)([N-]S(=O)(=O)C(F)(F)F)C(F)(F)F	1.29 ± 0.08	0.98 ± 0.06	0.86 ± 0.06
CC1CCCCC1 [methylcyclohexane] + CCCCCCCCCCCCCC[P+](CCCCCC)(CCCCCC)CCCCCC.O=S(=O)([N-]S(=O)(=O)C(F)(F)F)C(F)(F)F	0.92 ± 0.06	0.89 ± 0.06	0.86 ± 0.06
CC1CCCC1 [methylcyclopentane] + CCCCCCCCCCCCCC[P+](CCCCCC)(CCCCCC)CCCCCC.O=S(=O)([N-]S(=O)(=O)C(F)(F)F)C(F)(F)F	0.85 ± 0.05	0.8 ± 0.1	0.77 ± 0.05
C[N+](=O)[O-] [nitromethane] + CCCCCCCCCCCCCC[P+](CCCCCC)(CCCCCC)CCCCCC.O=S(=O)([N-]S(=O)(=O)C(F)(F)F)C(F)(F)F	0.77 ± 0.05	0.64 ± 0.04	0.58 ± 0.04
CCCCCCCCC [nonane] + CCCCCCCCCCCCCC[P+](CCCCCC)(CCCCCC)CCCCCC.O=S(=O)([N-]S(=O)(=O)C(F)(F)F)C(F)(F)F	1.87 ± 0.13	1.8 ± 0.1	1.74 ± 0.12
CCCCCCCC [octane] + CCCCCCCCCCCCCC[P+](CCCCCC)(CCCCCC)CCCCCC.O=S(=O)([N-]S(=O)(=O)C(F)(F)F)C(F)(F)F	1.48 ± 0.1	1.42 ± 0.09	1.4 ± 0.1
CCCC(C)=O [pentan-2-one] + CCCCCCCCCCCCCC[P+](CCCCCC)(CCCCCC)CCCCCC.O=S(=O)([N-]S(=O)(=O)C(F)(F)F)C(F)(F)F	0.31 ± 0.03	0.32 ± 0.03	0.33 ± 0.03
CCCO [propan-1-ol] + CCCCCCCCCCCCCC[P+](CCCCCC)(CCCCCC)CCCCCC.O=S(=O)([N-]S(=O)(=O)C(F)(F)F)C(F)(F)F	1.53 ± 0.1	1.21 ± 0.08	1 ± 0.06
CC(C)O [propan-2-ol] + CCCCCCCCCCCCCC[P+](CCCCCC)(CCCCCC)CCCCCC.O=S(=O)([N-]S(=O)(=O)C(F)(F)F)C(F)(F)F		1.22 ± 0.08	0.99 ± 0.06
CCC=O [propanal] + CCCCCCCCCCCCCC[P+](CCCCCC)(CCCCCC)CCCCCC.O=S(=O)([N-]S(=O)(=O)C(F)(F)F)C(F)(F)F	0.35 ± 0.03	0.33 ± 0.03	0.31 ± 0.03
c1ccncc1 [pyridine] + CCCCCCCCCCCCCC[P+](CCCCCC)(CCCCCC)CCCCCC.O=S(=O)([N-]S(=O)(=O)C(F)(F)F)C(F)(F)F	0.52 ± 0.04	0.41 ± 0.03	0.34 ± 0.03
ClC(Cl)(Cl)Cl [tetrachloromethane] + CCCCCCCCCCCCCC[P+](CCCCCC)(CCCCCC)CCCCCC.O=S(=O)([N-]S(=O)(=O)C(F)(F)F)C(F)(F)F	0.55 ± 0.04	0.55 ± 0.04	0.55 ± 0.04
c1ccsc1 [thiophene] + CCCCCCCCCCCCCC[P+](CCCCCC)(CCCCCC)CCCCCC.O=S(=O)([N-]S(=O)(=O)C(F)(F)F)C(F)(F)F	0.42 ± 0.04	0.4 ± 0.03	0.38 ± 0.03
Cc1ccccc1 [toluene] + CCCCCCCCCCCCCC[P+](CCCCCC)(CCCCCC)CCCCCC.O=S(=O)([N-]S(=O)(=O)C(F)(F)F)C(F)(F)F	0.46 ± 0.04	0.46 ± 0.04	0.47 ± 0.04
ClC(Cl)Cl [trichloromethane] + CCCCCCCCCCCCCC[P+](CCCCCC)(CCCCCC)CCCCCC.O=S(=O)([N-]S(=O)(=O)C(F)(F)F)C(F)(F)F	0.29 ± 0.03	0.31 ± 0.03	0.32 ± 0.03
CCCCCCCCCCC [undecane] + CCCCCCCCCCCCCC[P+](CCCCCC)(CCCCCC)CCCCCC.O=S(=O)([N-]S(=O)(=O)C(F)(F)F)C(F)(F)F	2.32 ± 0.16	2.18 ± 0.15	2.1 ± 0.2
